Data taken from the supplement of paper PMC8671470.

Key:
Details in all cases: 72 h
K-562 [1] = system: K-562
Outline: (§1)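 In 384-well plates holding acoustically pre-printed compounds at five tenfold doses from 1 to 10,000 nM, in duplicate, fifteen myeloid leukaemia cell lines were grown in RPMI 1640 for 72 h at 37 °C with 5% CO2. Luminescent ATP viability was scaled between vehicle and a positive control at 10 µM. The IC50 was then taken from log-logistic dose–response fits with four parameters.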

HEL [2] = system: HEL
Outline: as §1

LAMA-84 [3] = system: LAMA-84
Outline: as §1

BV-173 [4] = system: BV-173
Outline: as §1

MV4-11 [5] = system: MV4-11
Outline: as §1

KU-812 [6] = system: KU-812
Outline: as §1

KCL-22 [7] = system: KCL-22
Outline: as §1

Mono-Mac-6 [8] = system: Mono-Mac-6
Outline: as §1

KG-1 [9] = system: KG-1
Outline: as §1

ML-2 [10] = system: ML-2
Outline: as §1

THP-1 [11] = system: THP-1
Outline: as §1

HL-60 [12] = system: HL-60
Outline: as §1

MOLM-13 [13] = system: MOLM-13
Outline: as §1

NOMO-1 [14] = system: NOMO-1
Outline: as §1

SHI-1 [15] = system: SHI-1
Outline: as §1

K-562 [16] = assay: cell viability (% survival relative to DMSO control, bortezomib = 0%); higher = less cytotoxic
Outline: (§2)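 Fifteen myeloid leukaemia cell lines (10 AML, 5 CML) were seeded at a density titrated to the linear growth range. They went into 384-well plates with compounds pre-printed at 1, 10, 100, 1000 or 10000 nM in duplicate. After 72 h at 37 °C with 5% CO2, viability was read by CellTiter-Glo luminescence. Values are percent survival, with vehicle set to 100% and a 10 µM positive control to 0%, averaged over the duplicates.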

HEL [17] = assay: as above
Outline: as §2

LAMA-84 [18] = assay: as above
Outline: as §2

BV-173 [19] = assay: as above
Outline: as §2

MV4-11 [20] = assay: as above
Outline: as §2

KU-812 [21] = assay: as above
Outline: as §2

KCL-22 [22] = assay: as above
Outline: as §2

Mono-Mac-6 [23] = assay: as above
Outline: as §2

KG-1 [24] = assay: as above
Outline: as §2

ML-2 [25] = assay: as above
Outline: as §2

THP-1 [26] = assay: as above
Outline: as §2

HL-60 [27] = assay: as above
Outline: as §2

MOLM-13 [28] = assay: as above
Outline: as §2

NOMO-1 [29] = assay: as above
Outline: as §2

SHI-1 [30] = assay: as above
Outline: as §2

Cc1nc(-c2ccccc2)sc1C(=O)Nc1ccc(S(N)(=O)=O)cc1
Details	IC50 (cell viability) [µM]
BV-173 [4]	> 10
HEL [2]	> 10
HL-60 [12]	> 10
K-562 [1]	> 10
KCL-22 [7]	> 10
KG-1 [9]	> 10
KU-812 [6]	> 10
LAMA-84 [3]	> 10
ML-2 [10]	> 10
MOLM-13 [13]	> 10
MV4-11 [5]	> 10
Mono-Mac-6 [8]	> 10
NOMO-1 [14]	> 10
SHI-1 [15]	> 10
THP-1 [11]	> 10

cell viability [%]
Details	1 nM	10 nM	100 nM	1000 nM	10000 nM
BV-173 [19]	115	103	85.1	97.8	109
HEL [17]	110	112	106	89.3	105
HL-60 [27]	109	85	117	103	97.2
K-562 [16]	103	109	105	114	109
KCL-22 [22]	98.7	99.1	105	79.8	102
KG-1 [24]	118	104	98.5	93.3	102
KU-812 [21]	108	102	96.4	91	104
LAMA-84 [18]	107	99.9	102	96.2	111
ML-2 [25]	111	104	99.8	107	100
MOLM-13 [28]	102	112	127	106	99.7
MV4-11 [20]	106	112	105	105	93.8
Mono-Mac-6 [23]	121	102	98.7	97.3	108
NOMO-1 [29]	113	98.2	96.6	101	99.6
SHI-1 [30]	109	106	104	103	111
THP-1 [26]	107	103	97	94.7	97.7

Cn1cc(-c2ccncc2)c(-c2ccc(OCc3ccc4ccccc4n3)cc2)n1
Details	IC50 (cell viability) [µM]
BV-173 [4]	> 10
HEL [2]	9.86
HL-60 [12]	> 10
K-562 [1]	> 10
KCL-22 [7]	> 10
KG-1 [9]	> 10
KU-812 [6]	8.42
LAMA-84 [3]	> 10
ML-2 [10]	> 10
MOLM-13 [13]	1.74
MV4-11 [5]	2.09
Mono-Mac-6 [8]	> 10
NOMO-1 [14]	> 10
SHI-1 [15]	> 10
THP-1 [11]	> 10

cell viability [%]
Details	1 nM	10 nM	100 nM	1000 nM	10000 nM
BV-173 [19]	93.5	97.7	93.6	90.2	57.3
HEL [17]	93	119	96.9	99.8	59.4
HL-60 [27]	117	92.7	103	136	64.2
K-562 [16]	99.5	109	106	98.5	57.9
KCL-22 [22]	116	96	96.4	102	73.7
KG-1 [24]	97.7	96.7	110	102	87.4
KU-812 [21]	95.4	103	93.3	92.4	43.1
LAMA-84 [18]	104	114	98.4	95.8	60
ML-2 [25]	101	94.6	98.3	103	69.3
MOLM-13 [28]	123	99.5	95.9	69.4	6.76
MV4-11 [20]	101	118	91.5	76.5	7.29
Mono-Mac-6 [23]	92.7	87.4	89.5	90.5	52.3
NOMO-1 [29]	103	98.8	97	101	93.9
SHI-1 [30]	99	104	107	104	93.7
THP-1 [26]	92.7	101	100	104	92

O=C(O)CC[N+](=O)[O-] [3-nitropropionic acid]
Details	IC50 (cell viability) [µM]
BV-173 [4]	> 10
HEL [2]	> 10
HL-60 [12]	4.69
K-562 [1]	3.64
KCL-22 [7]	> 10
KG-1 [9]	> 10
KU-812 [6]	> 10
LAMA-84 [3]	> 10
ML-2 [10]	> 10
MOLM-13 [13]	2.87
MV4-11 [5]	3.17
Mono-Mac-6 [8]	> 10
NOMO-1 [14]	> 10
SHI-1 [15]	2.94
THP-1 [11]	> 10

cell viability [%]
Details	1 nM	10 nM	100 nM	1000 nM	10000 nM
BV-173 [19]	93.7	93.5	106	114	93.7
HEL [17]	92.8	116	117	98.8	104
HL-60 [27]	52.3	157	104	108	14.7
K-562 [16]	112	120	89.7	95	10.5
KCL-22 [22]	73.9	101	98.3	123	81
KG-1 [24]	99	91.2	97.3	97.3	104
KU-812 [21]	95.5	103	99.8	99.2	88.1
LAMA-84 [18]	104	103	98.6	97.5	103
ML-2 [25]	104	107	107	102	87
MOLM-13 [28]	68.7	122	110	94	0.718
MV4-11 [20]	105	115	87.2	99.5	0.752
Mono-Mac-6 [23]	102	93.6	101	97.4	104
NOMO-1 [29]	94.8	93.2	101	104	93.4
SHI-1 [30]	90.7	120	97.5	92.9	3.76
THP-1 [26]	88.2	96.7	99.1	86.5	92.2
